We go through 17 compounds from PubChem BioAssay (NCI).

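Briefly, cells in 96-well plates were exposed to five compound concentrations for 48 h, and endpoints were estimated by linear interpolation. GI50: concentration for 50% inhibition of growth. Definition used: TGI = concentration required for complete inhibition of growth.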

Holding throughout (assay): NCI anticancer screen, dose series, 48 h
Test [1] deals with DMS 114 small cell lung.
Test [2] deals with DMS 273 small cell lung.
Test [3] deals with HOP-18 NSCLC.
For test [4], the system named is KM12 colon.
Test [5] deals with SK-MEL-28 melanoma.
For test [6], the system named is KM20L2 colon.
For test [7], the system named is HS 578T breast.
The subject of test [8] is MCF7 breast.
Test [9] concerns NCI/ADR-RES ovarian.
Test [10] has as its system T-47D breast.

Regarding `O=C1C(=O)N(C(=O)c2ccc(Cl)c(Cl)c2)c2ccccc21`, the TGI in [1], in [2], in test [3], in test [4] and in test [5] was above 100 µM each time.
For the compound `Cc1cc(C)nc(NS(=O)(=O)c2ccc(Nc3c4ccccc4nc4c(C(=O)Nc5ccc(S(=O)(=O)N=C(N)N)cc5)ccc(Cl)c34)cc2)n1`, the TGI in test [1] is 41.8 µM; in test [2], above 100 µM; in test [3], above 100 µM; in [4], above 100 µM; in test [6], above 100 µM.
As for `CC(=O)O/C=C(/C=C/OC(C)=O)C(C/C=C(\C)C#CC=C(C)C)OC(C)=O` (centres undefined), the TGI in test [1] was 38.5 µM; in test [2], above 100 µM; in test [3], above 100 µM; in test [4], 61.5 µM; in [6], above 100 µM.
Turning to `Cc1cnc2c(C)ccc([N+](=O)[O-])c2c1NCCCN(C)C`, the TGI in test [1], in [2], in test [4], in test [6] and in test [5] was above 100 µM each time.
Turning to `N#Cc1c(-c2nc3ccccc3s2)c(=O)oc2cc(O)ccc12`, the TGI in [7] is above 100 µM; in test [4] it was 73 µM; in [8], above 100 µM; in test [9], above 100 µM; in [5], above 100 µM; in test [10], 78.2 µM.
As for `O=[N+]([O-])c1ccc(C(c2c[nH]c3ccccc23)c2c[nH]c3ccccc23)cc1`, the TGI in test [7] turned out to be 51.1 µM; in test [4], 28.1 µM; in [8] it was 7.4 µM; in [9] it was 27.5 µM; in test [5] it was 36.1 µM; in [10], 7.07 µM.
Consider `COc1ccc2[nH]c3c(c2c1)CCN(C)CC3`, for which the TGI in test [2], in test [3], in test [4], in [6] and in test [5] was above 100 µM each time.
Regarding `O=[N+]([O-])C1C(c2ccccc2)C12c1ccccc1-c1ccccc12` (centres undefined), the GI50 was 2280 nM in [7]; 0.931 µM in test [4]; 0.351 µM in test [8]; 657 nM in test [9]; 4.18 µM in [5]; 2.73 µM in test [10]. Moreover, the TGI in [7] is above 100 µM; in test [4] it was 16.6 µM; in [8], 30.8 µM; in test [9], above 23.7 µM; in [5] it was 22.5 µM; in [10], 23.2 µM.
`COc1ccc(N=C2CSc3nnc(-c4cc(F)c(Cl)cc4Cl)n3N2)cc1`: the GI50 in test [7] was 1500 nM; in test [4], 0.469 µM; in test [8], 0.464 µM; in [9], 2960 nM; in test [5] it was 2.38 µM; in test [10], 4.03 µM. The TGI in test [7] was 9 µM; in [4], 3.45 µM; in test [8], 19.8 µM; in test [9], above 100 µM; in [5], 21.4 µM; in test [10], 32.7 µM.
With `Nc1nc(SCc2ccccn2)c2ncn(C3CCCC3)c2n1`, the TGI in test [7] is 88.5 µM; in test [4] it was above 100 µM; in [8] it was above 100 µM; in [9] it was above 100 µM; in [5], above 100 µM; in test [10] it was above 100 µM.
`COc1cc(C2CC(c3ccc(C)cc3)=NN2C=O)ccc1Oc1ccnc2cc(Cl)ccc12` (centres undefined): the GI50 in [7] was 1820 nM; in [4] it was above 50 µM; in [8] it was above 50 µM; in [9], above 50000 nM; in test [5] it was above 50 µM; in test [10], 2.9 µM. Also, the TGI was above 50 µM in test [7]; above 50 µM in test [4]; above 50 µM in test [8]; above 50 µM in test [9]; above 50 µM in [5]; 23.5 µM in test [10].
On to `COC(=O)C1CC2(CC3=C1CCCC3)OCCO2` (centres undefined), for which the TGI in test [1], in [2], in test [4] and in test [5] was above 100 µM in each case.
`N#CCC1COc2ccccc2O1` (centres undefined): the TGI in test [7], in test [4], in test [8], in [9], in test [5] and in test [10] was above 10 µM each time.
As for `O=C(NNc1nc(Cl)nc(N2CCN(C(c3ccccc3)c3ccccc3)CC2)n1)c1ccccc1`, the GI50 is 1940 nM in test [7]; 4.76 µM in test [4]; 6.44 µM in test [8]; 2080 nM in [9]; 1.75 µM in [5]; 3.41 µM in test [10]. The TGI in [7] is 4.8 µM; in test [4], above 100 µM; in test [8], above 100 µM; in test [9], 4.41 µM; in [5], 3.25 µM; in test [10], above 100 µM.
Regarding `CC(=O)n1c(COS(C)(=O)=O)nc2ccccc21`, the TGI in test [7], in test [4], in test [8], in test [9], in test [5] and in test [10] was above 100 µM in each case.
Turning to `N#CCC(=O)Nc1cccc(C(F)(F)F)c1`, the TGI in test [2], in test [3], in test [4], in test [6] and in test [5] was above 100 µM in each case.
In the case of `Cc1c2c(nn1-c1ccc(S(=O)(=O)NC(=S)Nc3ccccc3)cc1)-c1ccccc1CC2`, the GI50 in test [7] was 44600 nM; in test [4], 25.6 µM; in [8], 11.5 µM; in test [9], above 50000 nM; in test [5] it was above 50 µM; in test [10] it was above 50 µM. Moreover, the TGI in test [7] is above 50 µM; in test [4], above 50 µM; in test [8], 34.3 µM; in test [9] it was above 50 µM; in test [5] it was above 50 µM; in [10] it was above 50 µM.
